The test system of assay [1] is NIH3T3. The experiment in a line: Inhibition of NF-Y binding to DNA sequence ICB2 in NIH3T3 cell extracts at 1 to 5 uM by EMSA. Type of assay: cell-free. Particulars: Homo sapiens. On the technique in general: Mobility shift assays separate free from complexed probe on a gel.
Assay [2] has as its system NIH3T3. The experiment in a line: Induction of topoisomerase 2 alpha protein expression in NIH3T3 cells after 24 hrs. Type of assay: functional, cell-based. As to conditions: Mus musculus.
The species entered for assay [3] is Homo sapiens. The experiment in a line: Binding affinity to DNA sequence ICB1 assessed as protection of ICB1 from DNAase I cleavage at 100 uM.
Assay [4] has as its system NIH3T3. Description: Increased topoisomerase 2 alpha protein expression in NIH3T3 cells at 10 uM after 4 hrs. The assay is classed as functional, cell-based. As to conditions: Mus musculus.
The species named for assay [5] is Homo sapiens. The experiment in a line: Binding affinity to DNA sequence ICB2 by SPR. Background: Surface plasmon resonance follows binding to a sensor surface in real time, without labels.
Assay [6] is filed under the species Homo sapiens. Description: Binding affinity to DNA sequence ICB4 assessed as protection of ICB4 from DNAase I cleavage at 100 uM.
Assay [7] concerns NIH3T3. Description: Inhibition of NF-Y binding to DNA sequence ICB1 in NIH3T3 cell extracts at 50uM by EMSA. Type of assay: cell-free. Particulars: Homo sapiens.
The subject of assay [8] is NIH3T3. The experiment in a line: Inhibition of NF-Y binding to DNA sequence ICB2 in NIH3T3 cell extracts at 50 uM by EMSA. As to conditions: Homo sapiens. The assay is classed as cell-free.

Activity calls are given as the source filed them. The rule behind the calls is not given here.

For `CN(C)CCNC(=O)c1cc(NC(=O)c2cc(NC(=O)c3cc(NC(=O)CCCNC(=O)c4nc(NC(=O)c5nc(NC(=O)c6cccn6C)cn5C)cn4C)cn3C)cn2C)cn1C`, the outcome in assay [1] and in assay [2] was Active.

Turning to `CN(C)CCNC(=O)c1cc(NC(=O)c2nc(NC(=O)c3cc(NC=O)cn3C)cn2C)cn1C`, the result in assay [3], in assay [6] and in assay [7] was inactive. Moreover, the outcome in assay [4] and in assay [8] was Active. Moreover, the Activity in assay [5] is 200000 M⁻¹.

(Values after ChEMBL document CHEMBL1146168, “Binding of f-PIP, a pyrrole- and imidazole-containing triamide, to the inverted CCAAT box-2 of the topoisomerase IIalpha promoter and modulation of gene expression in cells” (Bioorg Med Chem Lett, 2006).)
